From patent US11833144B2, “Treating autoimmune disease” (Mayo Foundation for Medical Education and Research, priority 2020, dated 2023)

How the values were obtained:
[1] = test system: activated human B cells; test: Seahorse OCR / ECAR in activated human B cells; assay type: cell-based
Description: The bioenergetic activities of the OCR and ECAR were measured using a Seahorse XFe96 Extracellular Flux Analyzed following established protocols (Agilent). Briefly, B cells were seeded at 200,000 cells/well on Cell-Tak (Corning) coated XFe96 plate with fresh XF media (Seahorse XF RPMI medium containing 10 mM glucose, 2 mM L-glutamine, and 1 mM sodium pyruvate, PH 7.4; all reagents from Agilent). OCR was measured in the presence of Oligomycin (1.5 μM; Sigma-Aldrich), FCCP (1.5 μM; Sigma-Aldrich), and Rotenone (1 μM; Sigma-Aldrich)/Antimycin A (1 μM; Sigma-Aldrich) in Mito Stress assay. For ECAR measurement, B cells were seeded in XFe96 plate with fresh Seahorse XF RPMI medium with 2 mM L-glutamine (PH 7.4), and treated with glucose (10 mM; Agilent), Oligomycin (1.5 and 2-DG (50 mM; Sigma-Aldrich) orderly in Glycolysis Stress assay.

[2] = test system: activated murine B cells; test: TMRM staining of mitochondrial membrane potential in activated murine B cells; assay type: cell-based, mouse; settings: 72 hours; for mitochondrial membrane potential (TMRM): substance alone
Description: For analysis of surface markers, cells were stained in PBS containing 1% (w/v) bovine serum albumin on ice for 30 minutes, with anti-IgG1 (RMG1-1, Biolegend), anti-CD19 (ID3, Biolegend) anti-B220 (RA3-6B2, Biolegend), anti-CD4 (GK1.5, Biolegend), anti-CD8 (53-6.7, Biolegend), anti-CD25 (PC16, Biolegend), anti-GL7 (GL-7, Biolegend), anti-CD95 (Jo2, BD Biosciences), anti-CD138 (281-2, Biolegend), anti-IgD (11-26c.2a, Biolegend), anti-PD-1 (J43, ThermoFisher), anti-IgM (II/41, ThermoFisher). Antigen specific GC response was detected with tetramer NP-phycoerythrin conjugated with PE (Biosearch Technologies). CXCR5 was stained with biotinylated anti-CXCR5 (2G8) followed by staining with streptavidin-conjugated PE (both from BD Biosciences). Cell viability was assessed using the Fixable Dye Ghost 510 (Tonbo Bioscience) or Annexin V cell apoptosis kit with 7-AAD (ThermoFisher) following the manufacturer's protocol. Phosflow staining for phospho-S6 (S235/236) was performed using Phosflow Fix/Perm kit (BD Biosciences). Mitochondrial potential was measured by staining with 20 nM TMRM (ThermoFisher) following manufacturer's instructions. Flow cytometry was performed on the LSR II, LSR Fortessa (BD Biosciences) or Attune NxT (ThermoFisher) cytometers, and analysis was performed using FlowJo software (Tree Star).

[3] = test system: C57BL/6 mice receiving bm12 splenocytes; test: bm12 splenocyte transfer lupus (cGvHD) model fed SSI-4 chow; assay type: in vivo, mouse; settings: SSI-4 chow 30 mg/kg
Description: MRL/MpJ-Fas^lpr mice and B6 (C)-H2-Ab1^bm12/KhEgJ (bm12) mice were purchased from the Jackson Laboratory. Six weeks old female MRL/MpJ-Fas^lpr mice were treated with control chow or SSI-4 chow (60 mg/kg, on a two-week SSI-4 chow/control-chow alternating schedule) ad libitum for 15 weeks. Proteinuria was measured using Albustix strips (Siemens). Kidney histology was done using routine H&E staining. Thirty million splenocytes from 8 weeks old B6 (C)-H2-Ab1^bm12/KhEgJ (bm12) mice were transferred into C57BL/6 mice intraperitoneally. Mice were fed with control chow or SSI-4 chow (30 mg/kg, on an one-week SSI-4 chow/control-chow alternating schedule) ad libitum for 8 weeks.
For analysis of surface markers, cells were stained in PBS containing 1% (w/v) bovine serum albumin on ice for 30 minutes, with anti-B220 (RA3-6B2, Biolegend), anti-CD4 (GK1.5, Biolegend), anti-CD138 (281-2, Biolegend), anti-PD-1 (J43, ThermoFisher). CXCR5 was stained with biotinylated anti-CXCR5 (2G8) followed by staining with streptavidin-conjugated PE (both from BD Biosciences). Cell viability was assessed using the Fixable Dye Ghost 510 (Tonbo Bioscience) following the manufacturer's protocol. Flow cytometry was performed on the LSR II, LSR Fortessa (BD Biosciences) or Attune NxT (ThermoFisher) cytometers, and analysis was performed using FlowJo software (Tree Star).

[4] = test system: mice; test: Mice fed SSI-4 chow: serum fatty acids (GC-MS) and lymphocyte development; assay type: in vivo, mouse
[5] = test system: activated mouse B cells; test: Transmission electron microscopy of autophagosomes in activated mouse B cells; assay type: cell-based; settings: SSI-4 treated B cells
Description: Cells were fixed in Trumps fixative (pH 7.2) at 4° C. overnight, spun down and the supernatant removed. They were re-suspended in 2% agarose which was allowed to cool and solidify. The cells in agarose were then post-fixed in 1% OsO4, dehydrated through a graded series of ethanols and embedded in Spurr resin. One hundred nm […] ultra-thin sections were mounted on 200-mesh copper grids, post-stained with lead citrate, and observed under a JEOL JEM-1400 transmission electron microscope at 80 kV.

[6] = test system: mice immunized with NP-OVA; test: NP-OVA immunization of mice fed SSI-4 chow: humoral immune response; assay type: in vivo, mouse
[7] = test system: SCD; test: 13C-glucose tracing of de novo fatty acid biosynthesis in activated B cells (NEFA isotopomer analysis); assay type: cell-based, mouse; settings: 48 hours
Description: Briefly, 5×10^6 activated B cells were washed with PBS and re-cultured in glucose-free medium RPMI medium containing 10% dialyzed FBS and uniformly labeled [^13C]-glucose (2 g/L; Sigma-Aldrich) for 24 and 48 hours. Cell pellets were lysed in 1×PBS prior to lipid extraction. The extract was dried down and brought up in running buffer before underwent analysis on an Agilent 6550 iFunnel Q-TOF mass spectrometer/1290 Infinity liquid chromatographic system. A mixed standard containing 14 fatty acids was also run at the beginning and at the end of the sequence to generate retention time lock as well as unlabeled mass spectrum for each fatty acid. The mass spec was operating in negative electrospray ionization. Data was acquired in scan mode from 50-1700 m/z range. Data analysis was performed on Agilent Technologies software including Profinder, Mass Profiler Professional (MPP) and Vista Flux. Briefly, the features extracted from the data files were aligned using Profinder and converted to a compound exchange file (CEF) format to import in the MPP. The list was filtered for frequency and abundance to identify features that are present in all samples and with high abundance. A library was created using mass, molecular formula, and retention time of these features and used in conjunction with the Vista Flux software to determine the presence of isotopologue in individual feature. […]

`CCCCCCCC/C=C\CCCCCCCC(=O)O` [OA, oleic acid] was tested, and the “human B cell glycolysis (ECAR)” value ([1]; exogenous OA, 72 h) was “improved human B cell glycolysis”, the “respiration (OCR) in activated human B cells” value ([1]; exogenous fatty acid, 72 hours) was “augmented respiration” and the “mitochondrial membrane potential (TMRM) under SCD inhibition with exogenous OA” value ([2]; SSI-4 plus OA) was “corrected”. The “mitochondrial membrane potential (TMRM)” value [2] was “able to increase mitochondrial membrane potential”.

In the case of `CNC(=O)c1ccnc(NC(=O)N2CCC(Oc3ccccc3Cl)CC2)c1` [SSI-4, 2-{[4-(2-Chlorophenoxy)piperidine-1-carbonyl]amino}-N-methylpyridine-4-carboxamide], the “generation of CXCR5+PD-1+ follicular helper T cells” value [3] is reported as “reduced”, the “generation of IgD-CD138+ plasma cells” value [3] is reported as “reduced” and the “serum anti-dsDNA autoantibody level” value ([3]; one-week alternating schedule, 8 weeks, ELISA) is reported as “reduced”. For the same compound, the “CD25+ pre-B cells in bone marrow” value ([4]; SSI-4 chow) was “significant reduction”, the “GC percentage and IgA expression in Peyer's patches” value ([4]; SSI-4 chow) was “modest reduction” and the composition of thymocytes ([4]; SSI-4 chow) was “unaffected”. The “number of peripheral B cells and CD4+ T cells” value ([4]; SSI-4 chow) was “not affected”, the “pool of immature B cells and B cell precursors (CD19+ B220int) in bone marrow” value ([4]; SSI-4 chow) was “significant reduction” and the “serum OA and PO concentration” value ([4]; SSI-4 chow for 1 week, GC-MS) was “markedly reduced”. The “frequency of mature B cells (CD19+IgMloIgD+)” value ([4]; SSI-4 chow, spleen) was “slightly increased”, the “autophagosome structures by transmission electron microscopy” value [5] was “increased structures with double layer membrane” and the “B220intCD138+ plasmablast generation” value ([6]; NP-OVA immunized, SSI-4 chow) was “not affected”. The “antigen specific NP+ GC B cells” value ([6]; NP-OVA immunized, SSI-4 chow) was “reduced”, the “splenic GC formation” value ([6]; NP-OVA immunized, SSI-4 chow) was “significantly suppressed” and the “OA level in sera of immunized mice” value ([6]; NP-OVA immunized, SSI-4 chow, GC-MS) was “substantially reduced”. The “mTORC1 activity (p-S6 MFI) in splenic B cells in vivo” value ([6]; SSI-4 chow (30 mg/kg), NP-OVA immunization for one week) was “suppressed mTORC1 activity”, the “percentage of Tfh cells after immunization” value ([6]; SSI-4 chow vs control chow) was “comparable” and the “production of anti-NP specific IgM antibodies” value ([6]; serum ELISA) was “but not IgM”. The “production of anti-NP specific total IgG and IgG1 antibodies” value ([6]; serum ELISA) was “significantly reduced”, the “13C incorporation from glucose in OA, PO and vaccenic acid” value [7] was “all abolished” and the “13C incorporation from glucose into SA, PA and myristic acid” value [7] was “largely unaffected”. The “mitochondrial membrane potential (TMRM)” value [2] was “reduced mitochondrial membrane potential”.
